We go through one compound from ChEMBL document CHEMBL1671750, “Emergence and molecular characterization of extensively drug-resistant Mycobacterium tuberculosis clinical isolates from the Delhi Region in India” (2010).

Calls of active or inactive are those of the source. No cut-off for these calls is given here.

Common to all, as to type: functional, organism-based
Assay [1] relates to Mycobacterium tuberculosis. As to the kind of experiment: Antimycobacterial activity against extensively drug-resistant Mycobacterium tuberculosis isolate 2301 obtained from sputum of patient at 100 ug/ml by Bactec MGIT960 modified proportion method.
Assay [2] has as its system Mycobacterium tuberculosis. As to the kind of experiment: Antimycobacterial activity against extensively drug-resistant Mycobacterium tuberculosis isolate 2911 obtained from sputum of patient at 100 ug/ml by Bactec MGIT960 modified proportion method.
The test system of assay [3] is Mycobacterium tuberculosis. The assay can be described thus: Antimycobacterial activity against extensively drug-resistant Mycobacterium tuberculosis isolate 625 obtained from sputum of patient at 100 ug/ml by Bactec MGIT960 modified proportion method.
Assay [4] deals with Mycobacterium tuberculosis. The assay can be described thus: Antimycobacterial activity against extensively drug-resistant Mycobacterium tuberculosis isolate 2403 obtained from sputum of patient at 100 ug/ml by Bactec MGIT960 modified proportion method.
Assay [5] concerns Mycobacterium tuberculosis. The assay can be described thus: Antimycobacterial activity against extensively drug-resistant Mycobacterium tuberculosis isolate 2474 obtained from sputum of patient at 100 ug/ml by Bactec MGIT960 modified proportion method.
In assay [6] the test system is Mycobacterium tuberculosis. As to the kind of experiment: Antimycobacterial activity against extensively drug-resistant Mycobacterium tuberculosis isolate 761 obtained from pus of patient at 100 ug/ml by Bactec MGIT960 modified proportion method.

On to `NC(=O)c1cnccn1`, for which the outcome in assay [1], in assay [3], in assay [4], in assay [5] and in assay [6] was inactive. Moreover, the outcome in assay [2] was Active.
